{
  "source": "patent US4694069A",
  "about": "“Kibdelosporangium aridum SK&F-AAD-609” (SmithKline Beckman Corporation, priority 1985, dated 1987)",
  "key": {"S. aureus HH127": {"test_system": "S. aureus HH127", "test": "Mouse protection test", "assay_type": "in vivo", "conditions": "mice dosed 1 and 5 h post infection s.c.", "excerpt": "(§1) in mouse protection tests^1\n(§2) ^1 Mice dosed 1 and 5 H post infection s.c.; ED50, mg/kg."}, "S. epidermidis 2479 [1]": {"test_system": "S. epidermidis 2479", "test": "Mouse protection test", "assay_type": "in vivo", "conditions": "mice dosed 1 and 5 h post infection s.c.", "excerpt": "as §1, §2"}, "S. faecalis 34358 [2]": {"test_system": "S. faecalis 34358", "test": "Mouse protection test", "assay_type": "in vivo", "conditions": "mice dosed 1 and 5 h post infection s.c.", "excerpt": "as §1, §2"}, "[3]": {"test_system": "S. epidermidis 651 (methicillin resistant strain)", "test": "Mouse protection test", "assay_type": "in vivo", "conditions": "mice dosed 1 and 5 h post infection s.c.; methicillin resistant strain", "excerpt": "as §1, §2"}, "[4]": {"test_system": "S. aureus 2620 (methicillin resistant strain)", "test": "Mouse protection test", "assay_type": "in vivo", "conditions": "mice dosed 1 and 5 h post infection s.c.; methicillin resistant strain", "excerpt": "as §1, §2"}, "[5]": {"test_system": "Staphylococcus aureus HH127", "test": "In vitro MIC, standard microtiter assay", "assay_type": "cell-based", "excerpt": "(§3) In vitro minimum inhibitory concentrations (MIC) of the AAD-609 complex and of Factors A, B, CC2 and D, using standard microtiter assay procedures, against a number of microorganisms are reported in Table A, which follows."}, "Clostridium difficile": {"test_system": "Clostridium difficile", "test": "In vitro MIC, standard microtiter assay", "assay_type": "cell-based", "conditions": "Table A", "excerpt": "as §3"}, "Escherichia coli 12140": {"test_system": "Escherichia coli 12140", "test": "In vitro MIC, standard microtiter assay", "assay_type": "cell-based", "conditions": "Table A", "excerpt": "as §3"}, "S. epidermidis 2479 [6]": {"test_system": "S. epidermidis 2479", "test": "In vitro MIC, standard microtiter assay", "assay_type": "cell-based", "excerpt": "as §3"}, "S. epidermidis 2683": {"test_system": "S. epidermidis 2683", "test": "In vitro MIC, standard microtiter assay", "assay_type": "cell-based", "conditions": "Table A", "excerpt": "as §3"}, "[7]": {"test_system": "S. epidermidis 651 (methicillin resistant strain)", "test": "In vitro MIC, standard microtiter assay", "assay_type": "cell-based", "conditions": "methicillin resistant strain", "excerpt": "as §3"}, "[8]": {"test_system": "Salmonella gallinarum BC-595", "test": "In vitro MIC, standard microtiter assay", "assay_type": "cell-based", "conditions": "Table A", "excerpt": "as §3"}, "[9]": {"test_system": "Streptococcus faecalis 657", "test": "In vitro MIC, standard microtiter assay", "assay_type": "cell-based", "conditions": "Table A", "excerpt": "as §3"}, "S. epidermidis 2265": {"test_system": "S. epidermidis 2265", "test": "In vitro MIC, standard microtiter assay", "assay_type": "cell-based", "conditions": "Table A", "excerpt": "as §3"}, "[10]": {"test": "pKa by potentiometric titration", "conditions": "30:70 acetonitrile:water, apparent values"}, "S. faecalis 34358 [11]": {"test_system": "S. faecalis 34358", "test": "In vitro MIC, standard microtiter assay", "assay_type": "cell-based, Streptococcus faecalis", "excerpt": "as §3"}, "[12]": {"test_system": "S. aureus 2620 (methicillin resistant strain)", "test": "MIC", "assay_type": "cell-based", "conditions": "Table B; methicillin resistant strain", "excerpt": "as §3"}, "S. aureus 209P": {"test_system": "S. aureus 209P", "test": "In vitro MIC, standard microtiter assay", "assay_type": "cell-based, Staphylococcus aureus", "conditions": "Table A", "excerpt": "as §3"}, "S. aureus 674": {"test_system": "S. aureus 674", "test": "In vitro MIC, standard microtiter assay", "assay_type": "cell-based, Staphylococcus aureus", "conditions": "Table A", "excerpt": "as §3"}, "S. aureus 675": {"test_system": "S. aureus 675", "test": "In vitro MIC, standard microtiter assay", "assay_type": "cell-based, Staphylococcus aureus", "conditions": "Table A", "excerpt": "as §3"}, "[13]": {"test_system": "S. aureus 910 (methicillin resistant strain)", "test": "In vitro MIC, standard microtiter assay", "assay_type": "cell-based, Staphylococcus aureus", "conditions": "Table A; methicillin resistant strain", "excerpt": "as §3"}, "[14]": {"conditions": "comparators, source not given; cited from earlier work"}, "[15]": {"conditions": "AAD-216A averaged previous results"}},
  "data": [
    {"compound": "CNC1C(=O)NC2C(=O)NC(C(=O)NC3C(=O)NC4C(=O)NC(C(=O)NC(C(=O)O)c5cc(O)cc(OC6OC(CO)C(O)C(O)C6O)c5-c5cc4ccc5O)C(O)c4cc(Cl)c(c(Cl)c4)Oc4cc3cc(c4OC3OC(CO)C(O)C(O)C3NC(=O)CCCCCCCCC(C)C)Oc3ccc(cc3Cl)C2O)c2cc(cc(O)c2Cl)Oc2cc1ccc2O", "note": "(stereo not shown) [AAD-609 C]", "values": [
      {"measurement": "ED50", "setting": "S. aureus HH127", "result": 8.5, "unit": "mg/kg"},
      {"measurement": "ED50", "setting": "S. epidermidis 2479 [1]", "result": 22, "unit": "mg/kg"},
      {"measurement": "ED50", "setting": "S. faecalis 34358 [2]", "result": 50, "unit": "mg/kg"},
      {"measurement": "ED50", "setting": "[3]", "result": 50, "unit": "mg/kg"},
      {"measurement": "ED50", "setting": "[4]", "result": 8.4, "unit": "mg/kg"},
      {"measurement": "MIC", "setting": "[5]; Table A", "result": 1.6, "unit": "µg/mL"},
      {"measurement": "MIC", "setting": "[5]; Table B", "result": 1.6, "unit": "µg/mL"},
      {"measurement": "MIC", "setting": "Clostridium difficile", "result": 1, "unit": "µg/mL"},
      {"measurement": "MIC", "setting": "Escherichia coli 12140", "result": "> 100", "unit": "µg/mL"},
      {"measurement": "MIC", "setting": "S. epidermidis 2479 [6]; Table A", "result": 12.5, "unit": "µg/mL"},
      {"measurement": "MIC", "setting": "S. epidermidis 2479 [6]; Table B", "result": 12.5, "unit": "µg/mL"},
      {"measurement": "MIC", "setting": "S. epidermidis 2683", "result": 25, "unit": "µg/mL"},
      {"measurement": "MIC", "setting": "[7]; Table A", "result": 25, "unit": "µg/mL"},
      {"measurement": "MIC", "setting": "[7]; Table B", "result": 25, "unit": "µg/mL"},
      {"measurement": "MIC", "setting": "[8]", "result": "> 100", "unit": "µg/mL"},
      {"measurement": "MIC", "setting": "[9]", "result": 0.2, "unit": "µg/mL"},
      {"measurement": "MIC", "setting": "S. epidermidis 2265", "result": 25, "unit": "µg/mL"},
      {"measurement": "pKa (A) carboxyl on aglycone", "setting": "[10]; [15]", "result": 3.6},
      {"measurement": "pKa (C) amino group on aglycone", "setting": "[10]; [15]", "result": 7.2},
      {"measurement": "pKa (D) phenolic OH", "setting": "[10]; first phenolic OH, AAD-216A averaged previous results", "result": 8.4},
      {"measurement": "pKa (D) phenolic OH", "setting": "[10]; fourth phenolic OH", "result": 11.6},
      {"measurement": "pKa (D) phenolic OH", "setting": "[10]; second phenolic OH, AAD-216A averaged previous results", "result": 9.9},
      {"measurement": "pKa (D) phenolic OH", "setting": "[10]; third phenolic OH, AAD-216A averaged previous results", "result": 10.6},
      {"measurement": "MIC", "setting": "S. faecalis 34358 [11]; Table A", "result": 0.2, "unit": "µg/mL"},
      {"measurement": "MIC", "setting": "S. faecalis 34358 [11]; Table B", "result": 0.2, "unit": "µg/mL"},
      {"measurement": "MIC", "setting": "[12]", "result": 4, "unit": "µg/mL"},
      {"measurement": "MIC", "setting": "S. aureus 209P", "result": 0.8, "unit": "µg/mL"},
      {"measurement": "MIC", "setting": "S. aureus 674", "result": 1.6, "unit": "µg/mL"},
      {"measurement": "MIC", "setting": "S. aureus 675", "result": 6.3, "unit": "µg/mL"},
      {"measurement": "MIC", "setting": "[13]", "result": 1.6, "unit": "µg/mL"}
    ]},
    {"compound": "ristocetin", "values": [
      {"measurement": "Isoelectric point", "setting": "[14]", "result": 8.4}
    ]}
  ]
}
